Source: patent US6426367B1, “Methods for selectively occluding blood supplies to neoplasias” (EFA Sciences LLC, priority 1999, dated 2002)
Like-named read-outs stand apart in the source and are kept apart here.

Assays:
tumor cells = conditions: cited from earlier work; for differential cytotoxic effect, tumor cells versus normal cells: well defined culture conditions
human gliomas = conditions: direct intra-tumoral administration; cited from earlier work
[1] = system: stage 4 neoplastic disease (hepatoma, giant cell tumor of the bone, renal cell carcinoma)
Description: (§1) Studies were conducted in 5 human patients with stage 4 neoplastic disease. Two of the patients had primary hepatoma (patients 1 and 2), two had giant cell tumor of the bone (patients 3 and 4) and one had renal cell carcinoma (patient 5).
(§2) The lithium salt of GLA was obtained from Scotia Pharmaceuticals, U.K. The PUFA salt was dissolved in sterile saline, sterile phosphate buffered saline (PBS, pH 7.4) or dilute ethanol in saline (final concentration <0.02% ethanol). The final concentration of PUFA in these solutions was approximately 25%. The PUFA solution was mixed with an iodized lymphographic oil (LIPIODOL ULTRA FLUIDE®, Laboratoire Guerbet, Paris, France), in a ratio of between 1:1.5 and 1:3 (volume/volume). In some cases, the PUFA was modified by covalent conjugation (e.g., amide bond) to the iodized lymphographic oil. In other cases the PUFA salt was unmodified, and was diluted directly into the lymphographic agent without conjugation. The PUFA and lymphographic oil mixture was prepared under sterile conditions immediately prior to use.
(§3) Patients were admitted into the hospital for the study. A proximal artery suppling a major portion of the blood supply to the tumor was identified. Catheterization of the major artery from which the proximal artery arises was performed under local anaesthesia. In patients 1 and 2 (with hepatomas), the tip of the catheter was positioned in the right hepatic artery via the right femoral artery. In patient 3 (with giant cell tumor of the right lower end of the femur), the tip of the catheter was positioned in the right femoral/popliteal artery. In patient 4 (with giant cell tumor of the left scapula), the tip of the catheter was positioned in the left subdlavian/axillary arteries. In patient 5 (with left kidney tumor), the tip of the catheter was positioned in the left renal artery. Conjugated PUFA salt was prepared fresh, just prior to injection. Radiographic and CT scan examinations were performed immediately after the injection and at periodic intervals in all the five patients.
Patients 1 and 2 with hepatoma were administered total doses of 1.6 gm and 0.75 gm respectively (the dose refers to the amount of Li-GLA) of PUFA salt into the right hepatic artery through the right femoral route. Patient 3, with giant cell tumor of the lower end of the right femur, underwent right femoral artery catheterization and the tip of the catheter was positioned in the popliteal artery to deliver 500 mg of PUFA salt. Patient 4, who had giant cell tumor of the left scapula, received PUFA salt by selective cannulation of the left subdlavian artery, through the femoral route, from which the tumor-feeding vessel was arising and was given 660 mg of PUFA salt. […] During the administration of PUFA salt, the vital signs of each patient were monitored.

[2] = Description: as §3
(§4) Patients 1 and 2 with hepatoma were administered total doses of 1.6 gm and 0.75 gm respectively (the dose refers to the amount of Li-GLA) of PUFA salt into the right hepatic artery through the right femoral route. Patient 3, with giant cell tumor of the lower end of the right femur, underwent right femoral artery catheterization and the tip of the catheter was positioned in the popliteal artery to deliver 500 mg of PUFA salt. Patient 4, who had giant cell tumor of the left scapula, received PUFA salt by selective cannulation of the left subdlavian artery, through the femoral route, from which the tumor-feeding vessel was arising and was given 660 mg of PUFA salt. Patient 5, with renal tumor, received 750 mg of PUFA salt through the right femoral route into the left renal artery from which the tumor-feeding vessels were arising. In all the patients, the administration of PUFA salt was done as swiftly as possible. During the administration of PUFA salt, the vital signs of each patient were monitored.

[3] = system: normal arteries including the celiac, subclavian and popliteal arteries
Description: Moreover, in several other patients, a PUFA was injected into normal arteries including the celiac, subclavian and popliteal arteries.
(§5) In order to determine how the arterial supply to the tumor tissue was influenced by the injection of PUFA salt, angiography was performed and recorded during and immediately after the procedure, and at periodic intervals thereafter.

tumor-feeding vessels = system: tumor-feeding vessels
Description: as §1, §2, §3, §5, §4

[4] = patient 4, seven and a half years after injection

Which “differential cytotoxic effect, tumor cells versus normal cells” value (“differential cytotoxic effect” below) (tumor cells) does the source give for `CCCCC/C=C\C/C=C\C/C=C\C/C=C\CCCC(=O)O` [AA, arachidonic acid] here?
The value was “marked differential cytotoxic effect”.

For `CC/C=C\C/C=C\C/C=C\C/C=C\C/C=C\C/C=C\CCC(=O)O` [DHA, docosahexaenoic acid], which “differential cytotoxic effect” value (tumor cells) is on record?
The value was “marked differential cytotoxic effect”.

With `CC/C=C\C/C=C\C/C=C\C/C=C\C/C=C\CCCC(=O)O` [EPA, eicosapentaenoic acid] as the compound, how does the “differential cytotoxic effect” value (tumor cells) read?
The value was “marked differential cytotoxic effect”.

For `CCCCC/C=C\C/C=C\C/C=C\CCCCC(=O)O` [GLA, gamma-linolenic acid], which “selectivity of tumoricidal action in mixed culture” value (tumor cells; normal and tumor cells grown together) is on record?
The value was “more selective tumoricidal action compared to AA and EPA”.

What about the “differential cytotoxic effect” value (tumor cells) of the same compound?
The value was “marked differential cytotoxic effect”.

And the “effect on human gliomas” value (human gliomas)?
Its value is “can regress human gliomas”.

What about the side-effects (human gliomas) of the same compound?
Its side-effects is “without significant side-effects”.

With `CCCCC/C=C\C/C=C\C/C=C\CCCCC(=O)[O-].[Li+]` [PUFA salt, lithium salt of GLA] as the compound, how does the “weight gain after injection” value ([1]; patient 1, hepatoma, 6 months following the injection) read?
The value was over 10 kgs.

And the “reduction in the size of the hepatoma” value ([1]; patient 1, one month after the first injection)?
The value was “More than 50%”.

And the “state of the tumor mass at follow-up” value [1, 4]?
The value was “completely calcified”.

And the survival after injection ([1]; patient 5, advanced renal cell carcinoma with secondary tumors)?
The survival after injection was 3 months.

What about the “side-effects due to the therapy” value ([2]; all 5 patients) of the same compound?
Its value is “no significant side-effects”.

What about the “tolerability of the treatment” value ([2]; all 5 patients) of the same compound?
Its value is “tolerated the treatment well”.

And the “biochemical tests after administration” value ([2]; all patients)?
The value was “normal”.

What about the side-effect observed ([2]; during and immediately after the injection) of the same compound?
Its side-effect observed is “mild feeling of warmth followed by pain at the site of the tumor”.

And the “time until pain subsided” value ([2]; patient 2, mild to moderate pain in the hepatic region, NSAIDs given)?
Its value is 24 to 48 h.

What about the “occlusion of normal arteries feeding the normal lower pole of the kidney” value ([3]; patient 5, 750 mg, renal artery) of the same compound?
The value was “without any occlusion”.

And the “occlusion of normal vasculature feeding non-neoplastic tissues” value ([3]; patients treated with PUFA salt, angiograms)?
Its value is “No occlusion”.

What about the “spasms or occlusions of normal arteries after injection” value ([3]; several other patients, injection into celiac, subclavian and popliteal arteries) of the same compound?
The value was “no spasms or occlusions”.

And the “occlusion of the tumor-feeding vessels following PUFA salt injection” value (tumor-feeding vessels; all 5 patients, intra-arterial, 0.5-1.6 gm Li-GLA mixed with or conjugated to LIPIODOL)?
The value was “total occlusion of the tumor-feeding vessels”.

What about the “speed of occlusion of tumor-feeding vessels” value (tumor-feeding vessels; all types of tumor-feeding vessels, irrespective of size) of the same compound?
Its value is “almost instantaneously”.

What about the “occlusion of tumor-feeding vessels in third angiogram” value (tumor-feeding vessels; patient 1, hepatoma, 1 week after second dose (0.5 gm), 11th day after first dose) of the same compound?
Its value is “almost complete occlusion”.

What about the “tumor blush in repeat angiogram” value (tumor-feeding vessels; patient 1, hepatoma, 4 days after first dose) of the same compound?
The value was “much reduced”.

What about the “tumor-feeding vessels visible on repeat angiogram” value (tumor-feeding vessels; patient 1, hepatoma, 28 days after injection) of the same compound?
The value was “no tumor-feeding vessels could be seen”.

What about the “tumor-feeding vessels occluded following the first injection” value (tumor-feeding vessels; patient 1, hepatoma, first dose 1.1 gm, right hepatic artery) of the same compound?
The value was “More than 50%”.

And the “timing of occlusion of tumor-feeding vessels” value (tumor-feeding vessels; patient 2, hepatoma)?
Its value is “essentially simultaneously with the injection”.

What about the “occlusion of tumor-feeding vessels immediately after injection” value (tumor-feeding vessels; patient 2, hepatoma, 750 mg, right hepatic artery) of the same compound?
Its value is “complete occlusion”.

What about the “state of occluded tumor-feeding vessels in repeat angiogram” value (tumor-feeding vessels; patient 3, 10 days after injection) of the same compound?
Its value is “remained closed”.

And the “occlusion of tumor-feeding vessels immediately after injection” value (tumor-feeding vessels; patient 3, giant cell tumor of right femur, 500 mg, femoral/popliteal artery)?
Its value is “Complete occlusion”.

What about the “occlusion of tumor-feeding vessels immediately after administration” value (tumor-feeding vessels; patient 4, giant cell tumor of left scapula, 660 mg, left subclavian artery) of the same compound?
Its value is “Complete occlusion”.

And the “state of tumor-feeding vessels in follow-up angiogram” value (tumor-feeding vessels; [4])?
Its value is “still occluded”.

What about the “occlusion of tumor-feeding arteries” value (tumor-feeding vessels; patient 5, renal cell carcinoma, 750 mg, renal artery) of the same compound?
Its value is “Complete occlusion”.
